Results: PubChem BioAssay (NCI)
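Compound exposure: 48 hours, 5 concentrations, 96-well plates. The concentration for 50% growth inhibition is given as GI50. The concentration for full growth arrest is given as TGI.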

Key:
Experiment in all cases: inhibition of tumour cell growth, NCI panel, 48 h
[1] = system: 786-0 renal
[2] = system: A498 renal
[3] = system: A549 NSCLC
[4] = system: ACHN renal
[5] = system: BT-549 breast
[6] = system: CAKI-1 renal
[7] = system: CCRF-CEM leukemia
[8] = system: COLO 205 colon
[9] = system: DU-145 prostate
[10] = system: EKVX NSCLC
[11] = system: HCT-116 colon
[12] = system: HCT-15 colon
[13] = system: HL-60(TB) leukemia
[14] = system: HOP-62 NSCLC
[15] = system: HOP-92 NSCLC
[16] = system: HS 578T breast
[17] = system: HT29 colon
[18] = system: IGROV1 ovarian
[19] = system: K-562 leukemia
[20] = system: KM12 colon
[21] = system: LOX IMVI melanoma
[22] = system: M14 melanoma
[23] = system: MCF7 breast
[24] = system: MDA-MB-231 breast
[25] = system: MDA-MB-435
[26] = system: MOLT-4 leukemia
[27] = system: NCI-H226 lung
[28] = system: NCI-H23 lung
[29] = system: NCI-H460 lung
[30] = system: NCI/ADR-RES ovarian
[31] = system: OVCAR-3 ovarian
[32] = system: OVCAR-4 ovarian
[33] = system: OVCAR-5 ovarian
[34] = system: OVCAR-8 ovarian
[35] = system: PC-3 prostate
[36] = system: RPMI-8226 leukemia
[37] = system: RXF 393 renal
[38] = system: SF-268 CNS
[39] = system: SF-295 CNS
[40] = system: SF-539 CNS
[41] = system: SK-MEL-2 melanoma
[42] = system: SK-MEL-28 melanoma
[43] = system: SK-MEL-5 melanoma
[44] = system: SK-OV-3 ovarian
[45] = system: SN12C renal
[46] = system: SNB-19 CNS
[47] = system: SNB-75 CNS
[48] = system: SW-620 colon
[49] = system: T-47D breast
[50] = system: TK-10 renal
[51] = system: U251 CNS
[52] = system: UACC-257 melanoma
[53] = system: UACC-62 melanoma

What does the source list for `CC1=C2[C@H]3OC(=O)[C@@H](C)[C@@H]3CC[C@@]2(C)C=CC1=O`?
GI50 [1]: > 100 µM; TGI [1]: > 100 µM; GI50 [2]: > 100 µM; TGI [2]: > 100 µM; GI50 [3]: > 100 µM; TGI [3]: > 100 µM; GI50 [4]: > 100 µM; TGI [4]: > 100 µM; GI50 [5]: > 100 µM; TGI [5]: > 100 µM; GI50 [6]: > 100 µM; TGI [6]: > 100 µM; GI50 [7]: > 100 µM; TGI [7]: > 100 µM; GI50 [8]: > 100 µM; TGI [8]: > 100 µM; GI50 [9]: > 100 µM; TGI [9]: > 100 µM; GI50 [10]: > 100 µM; TGI [10]: > 100 µM; GI50 [11]: > 100 µM; TGI [11]: > 100 µM; GI50 [12]: > 100 µM; TGI [12]: > 100 µM; GI50 [13]: > 100 µM; TGI [13]: > 100 µM; GI50 [14]: > 100 µM; TGI [14]: > 100 µM; GI50 [15]: > 100 µM; TGI [15]: > 100 µM; GI50 [16]: > 100 µM; TGI [16]: > 100 µM; GI50 [17]: > 100 µM; TGI [17]: > 100 µM; GI50 [18]: > 100 µM; TGI [18]: > 100 µM; GI50 [19]: > 100 µM; TGI [19]: > 100 µM; GI50 [20]: > 100 µM; TGI [20]: > 100 µM; GI50 [21]: > 100 µM; TGI [21]: > 100 µM; GI50 [22]: > 100 µM; TGI [22]: > 100 µM; GI50 [23]: > 100 µM; TGI [23]: > 100 µM; GI50 [24]: > 100 µM; TGI [24]: > 100 µM; GI50 [25]: > 100 µM; TGI [25]: > 100 µM; GI50 [26]: > 100 µM; TGI [26]: > 100 µM; GI50 [27]: > 100 µM; TGI [27]: > 100 µM; GI50 [28]: > 100 µM; TGI [28]: > 100 µM; GI50 [29]: > 100 µM; TGI [29]: > 100 µM; GI50 [30]: > 100 µM; TGI [30]: > 100 µM; GI50 [31]: > 100 µM; TGI [31]: > 100 µM; GI50 [32]: > 100 µM; TGI [32]: > 100 µM; GI50 [33]: > 100 µM; TGI [33]: > 100 µM; GI50 [34]: > 100 µM; TGI [34]: > 100 µM; GI50 [35]: > 100 µM; TGI [35]: > 100 µM; GI50 [36]: > 100 µM; TGI [36]: > 100 µM; GI50 [37]: > 100 µM; TGI [37]: > 100 µM; GI50 [38]: > 100 µM; TGI [38]: > 100 µM; GI50 [39]: > 100 µM; TGI [39]: > 100 µM; GI50 [40]: > 100 µM; TGI [40]: > 100 µM; GI50 [41]: > 100 µM; TGI [41]: > 100 µM; GI50 [42]: > 100 µM; TGI [42]: > 100 µM; GI50 [43]: > 100 µM; TGI [43]: > 100 µM; GI50 [44]: > 100 µM; TGI [44]: > 100 µM; GI50 [45]: > 100 µM; TGI [45]: > 100 µM; GI50 [46]: > 100 µM; TGI [46]: > 100 µM; GI50 [47]: > 100 µM; TGI [47]: > 100 µM; GI50 [48]: > 100 µM; TGI [48]: > 100 µM; GI50 [49]: > 100 µM; TGI [49]: > 100 µM; GI50 [50]: > 100 µM; TGI [50]: > 100 µM; GI50 [51]: > 100 µM; TGI [51]: > 100 µM; GI50 [52]: > 100 µM; TGI [52]: > 100 µM; GI50 [53]: > 100 µM; TGI [53]: > 100 µM
